Source: PMC13224100, “Esterase-Responsive Mitochondria-Targeted Hydropersulfide Donors Mitigate Doxorubicin Cardiotoxicity While Preserving Anticancer Activity” (Angewandte Chemie (International ed. in English), 2025)

Assays:
Format in all cases: cell-based
[1] = test system: H9c2 cells; assay: Intracellular RSSH analysis by LC-MS/MS after subcellular fractionation; details: 200 μM, 2 h; for HPE-AM adducts of Cys-SSH and GSSH, cytoplasmic fraction: vs vehicle; for Cys-SH and GSH in mitochondria: did not reach statistical significance
Method: After confirming efficient esterase-triggered RSSH generation from these newly developed precursors in PBS (pH 7.4), we next evaluated their ability to release RSSH in cardiac cells. […] H9c2 cells were treated with each donor (200 μM, 2 h), followed by subcellular fractionation using differential centrifugation to isolate cytoplasmic and mitochondrial fractions. Each fraction was subsequently incubated with the RSSH-trapping agent HPE-IAM (5 mM in methanol) to alkylate and stabilize transient RSSH species. The resulting adducts were analyzed by LC–MS/MS.[40, 41] In the cytoplasmic fraction, both donors increased HPE-AM adducts of Cys-SSH and GSSH, with APT-1 showing higher levels than APT-1-TPP (Figure 3a,b).
Figure 3. Measurement of cysteine hydropersulfide (Cys-SSH) and glutathione hydropersulfide (GSSH) in cytoplasm (a and b) and mitochondria (c and d) of H9c2 cells. Cells were treated with APT-1 (200 μM), APT-1-TPP (200 μM), or vehicle (0.01% DMSO in serum-free medium) for 2 h, followed by subcellular fractionation. Each fraction was incubated with HPE-IAM (5 mM, 30 min) to trap RSSH species prior to LC–MS/MS analysis. Data are mean ± SEM (n = 3); *p ≤ 0.05, **p ≤ 0.01. […]
Intracellular RSSH Analysis by LC-MS
H9c2 cells were cultured in 150-mm dishes to 80–90% confluency and treated for 2 h with either control medium (FBS-free DMEM, 0.01% DMSO) or 200 μM RSSH donors (FBS-free DMEM with APT-1 or APT-1-TPP). Cells were washed two times with warm PBS, collected by scraping, and centrifuged at 1,000 × g for 10 min at 4 °C (Sorvall ST 8R, ThermoFisher). Pellets were resuspended in 0.6 mL sucrose buffer; ¼ was reserved for BCA assay and ¾ used for fractionation. Cells were lysed on ice by 20 passages through a 26-G needle and centrifuged at 1,500 × g for 10 min at 4 °C (Z 216 MK, HERMLE). Pellets (nuclear/debris fraction) were collected, and supernatants were centrifuged at 12,000 × g for 10 min at 4 °C. Pellets (mitochondrial fraction) and supernatants (cytoplasmic fraction) were collected. Each of these fractions were resuspended in methanol containing 5 mM HPE-IAM, sonicated (3 × 10 s on/10 s off, Branson Sonifier SFX150), incubated at 37 °C for 30 min, and centrifuged at 16,000 × g for 10 min at 4 °C.
Supernatants were analyzed by MRM LC-MS/MS (Ultivo Triple Quadrupole, Agilent) using a Poroshell 120 EC-C18 column (4.6 × 100 mm, 2.7 μm; Agilent) at 30 °C, 0.6 mL/min, with the following gradient (solvent A: water + 0.1% TFA; solvent B: acetonitrile + 0.1% TFA): 0–1.5 min, […]
min, 97% A. Injection volume: 10 μL. Experiments were performed in triplicate (n = 3 biological replicates). Data are shown as mean ± SEM. […]
Ta b l e S1. MRM parameters for LC-MS/MS
Analyte Polarity Precursor ion Product ion Collision energy
Figure S21. Measurement of H2S2, and H2S in cytoplasm (A, B) and mitochondria (C,D) of H9c2 cells treated with APT-1 (200 µM) APT-1-TPP (200 µM), or vehicle (0.01% DMSO in serum-free medium) for 2 h. Data are mean ± SEM (n = 3); *p ≤ 0.05, **p ≤ 0.01.
Figure S22. Measurement of Cys-SH and GSH in cytoplasm (A, B) and mitochondria (C, D) of H9c2 cells […]
Cytotoxicity Assessment of Hydropersulfide Precursors in H9c2 and HepG2 cells Cell viability was measured using the Cell Counting Kit-8 (CCK-8, Dojindo).[7] H9c2 cardiomyoblast and HepG2 cells were seeded at a density of 8 × 10³ cells/well in a 96-well plate (flat-bottom, tissue culture-treated). […]

[2] = test system: HepG2 cells; assay: Effect of RSSH donors on anticancer activity of DOX, CCK-8; details: 4 h pretreatment, then 24 h co-treatment with DOX 5 μM
Method: (§1) We next evaluated the effects of RSSH donors on DOX activity in three representative cancer cell lines: triple-negative breast cancer MDA-MB-468, ER-positive breast cancer MCF-7, and hepatocellular carcinoma HepG2.
(§2) Figure 5. Effect of RSSH donors on anticancer activity of DOX in cancer cells. MDA-MB-468, MCF-7, and HepG2 cells were pretreated with APT-1 or its mitochondria-targeted analog APT-1-TPP for 4 h, followed by co-treatment with DOX (5 μM for MDA-MB-468 and HepG2; 15 μM for MCF-7) for an additional 24 h. Results are presented as mean ± SEM, n = 3; *p < 0.05, **p < 0.01, ***p < 0.001, ****p < 0.0001. Ctl = vehicle-treated group (0.01% DMSO in medium). […]
(§3) Cytoprotective Effects of RSSH Donors against Doxorubicin Toxicity
(§4) Cytoprotective studies were performed as previously described.[8] Briefly, H9c2 cells, HepG2 cells, MDA-MB-468 cells, and MCF-7 cells were seeded at a density of 7 x 10^3 cells/well. […] Additionally, in the vehicle control group, cells were treated with medium (DMEM with 10% FBS) containing 0.01% DMSO only. The cells were then further incubated for an additional 4 h before being treated with DOX (10 μL/well, with final concentration of 5 μM). After a 24 h co-incubation with DOX, each well was carefully washed three times with PBS (pH 7.4) and 100 μL o f F B S-free medium containing 10% v/v CCK-8 (Dojindo) was added. The plates were then incubated for 1-2 h before measuring absorbance at […]
(§5) The relative % cell viability was calculated as 100 times the ratio of Abs450 (RSSH donor + DOX-exposed) to Abs450 (vehicle, non-DOX-exposed). Each treatment condition was performed in 6 technical replicates per biological replicate, and the experiment was independently repeated three times (n = 3 biological replicates). Data are presented as mean ± SEM. […]

[3] = test system: MCF-7 cells; assay: as above; details: 4 h pretreatment, then 24 h co-treatment with DOX 15 μM
Method: as §1, §2, §3, §4, §5

[4] = test system: MDA-MB-468 cells; assay: as above; details: 4 h pretreatment, then 24 h co-treatment with DOX 5 μM
Method: as §1, §2, §3, §4, §5

CC(=O)NC(C(=O)N(C)CCC[P+](c1ccccc1)(c1ccccc1)c1ccccc1)C(C)(C)SSC(=O)N(C)CCOC(C)=O (stereo not shown) [APT-1-TPP]
Cys-SH and GSH in the cytoplasm [1]: significant increases | H2S and H2S2 levels in mitochondria [1]: elevated | Cys-SSH and GSSH adducts, mitochondrial fraction ([1]; compared with APT-1): substantially higher levels | HPE-AM adducts of Cys-SSH and GSSH, cytoplasmic fraction [1]: increased | Cys-SH and GSH in mitochondria [1]: modest increases | effect on DOX cytotoxicity [2]: potentiated DOX cytotoxicity in a dose-dependent manner | effect on DOX cytotoxicity [3]: synergistically enhanced its activity | concentration that modestly enhanced DOX's anticancer activity [4]: ≥ 100 µM | effect on DOX cytotoxicity [4]: no protective effect

COC(=O)C(NC(C)=O)C(C)(C)SSC(=O)N(C)CCOC(C)=O (stereo not shown) [APT-1]
Cys-SH and GSH in the cytoplasm [1]: significant increases | H2S and H2S2 levels in the cytoplasm [1]: elevated | HPE-AM adducts of Cys-SSH and GSSH, cytoplasmic fraction [1]: increased | Cys-SH and GSH in mitochondria [1]: modest increases | effect on DOX cytotoxicity [2]: no protective effect | effect on DOX cytotoxicity [3]: did not blunt DOX cytotoxicity | effect on DOX cytotoxicity [4]: did not provide cytoprotection
